From ChEMBL document CHEMBL3885881, “DrugMatrix”

Species: Rattus norvegicus
Test: DrugMatrix - Regimen: Daily Repeat
Assay type: toxicity, organism-based, Sprague-Dawley
Set-up: regimen Daily Repeat, gender Male, age 6-8 weeks
Conditions: in vivo, po, 75 mg/kg, route oral GAVAGE, dose level High, vehicle .5 % CMC; for ABSOLUTE BASOPHIL / ABSOLUTE EOSINOPHIL / ABSOLUTE LYMPHOCYTE / ABSOLUTE MONOCYTE / ABSOLUTE SEGMENTED NEUTROPHIL / BASOPHIL / EOSINOPHIL / ERYTHROCYTE COUNT / HEMATOCRIT / HEMOGLOBIN / LEUKOCYTE COUNT / LYMPHOCYTE / MEAN CORPUSCULAR HEMOGLOBIN / MEAN CORPUSCULAR HEMOGLOBIN CONCENTRATION / MEAN CORPUSCULAR VOLUME / MONOCYTE / NEUTROPHIL / NUCLEATED RED BLOOD CELLS / PLATELET COUNT: tissue Blood
[1] = 72 h, tissue Plasma, time 3 day
[2] = 120 h, tissue Plasma, time 5 day

## COc1ccc(C2CNC(=O)C2)cc1OC1CCCC1 (stereo not drawn) [ROLIPRAM]
72 h, time 3 day
  ABSOLUTE BASOPHIL: 0 CELLS/uL
  ABSOLUTE EOSINOPHIL: 174 CELLS/uL
  ABSOLUTE LYMPHOCYTE: 10500 CELLS/uL
  ABSOLUTE MONOCYTE: 432 CELLS/uL
  ABSOLUTE SEGMENTED NEUTROPHIL: 3427.33 CELLS/uL
  BASOPHIL: 0%
  EOSINOPHIL: 1%
  ERYTHROCYTE COUNT: 6.02 x10E6/uL
  HEMATOCRIT: 37.7%
  HEMOGLOBIN: 13.93 G/DL
  LEUKOCYTE COUNT: 14.53 x10E3/uL
  LYMPHOCYTE: 73.33%
  MEAN CORPUSCULAR HEMOGLOBIN: 23.2 pg
  MEAN CORPUSCULAR HEMOGLOBIN CONCENTRATION: 36.97 G/DL
  MEAN CORPUSCULAR VOLUME: 62.73 fL
  MONOCYTE: 2.67%
  NEUTROPHIL: 23%
  NUCLEATED RED BLOOD CELLS: 0 /100WBC
  PLATELET COUNT: 1088.33 x10E3/uL
[1]
  ALANINE AMINOTRANSFERASE: 60.33 u/L
  ALBUMIN: 4.3 G/DL
  ALKALINE PHOSPHATASE: 331.67 u/L
  ASPARTATE AMINOTRANSFERASE: 73.33 u/L
  BLOOD UREA NITROGEN: 14.67 mg/dL
  CARBON DIOXIDE: 28 mmol/L
  CHLORIDE: 104 MEQ/L
  CHOLESTEROL: 63.33 mg/dL
  CREATININE: 0.17 mg/dL
  GLUCOSE: 170.67 mg/dL
  LACTATE DEHYDROGENASE: 116 u/L
  LIPASE: 10 u/L
  PHOSPHORUS: 11 mg/dL
  POTASSIUM: 6.1 MEQ/L
  SODIUM: 147.83 MEQ/L
  TOTAL BILIRUBIN: 0.1 mg/dL
  TOTAL PROTEIN: 6.23 G/DL
  URIC ACID: 1.73 mg/dL
120 h, time 5 day
  ABSOLUTE BASOPHIL: 0 CELLS/uL
  ABSOLUTE EOSINOPHIL: 142.67 CELLS/uL
  ABSOLUTE LYMPHOCYTE: 8076.67 CELLS/uL
  ABSOLUTE MONOCYTE: 387 CELLS/uL
  ABSOLUTE SEGMENTED NEUTROPHIL: 1493.67 CELLS/uL
  BASOPHIL: 0%
  EOSINOPHIL: 1.33%
  ERYTHROCYTE COUNT: 6.66 x10E6/uL
  HEMATOCRIT: 40%
  HEMOGLOBIN: 14.37 G/DL
  LEUKOCYTE COUNT: 10.1 x10E3/uL
  LYMPHOCYTE: 81.33%
  MEAN CORPUSCULAR HEMOGLOBIN: 21.6 pg
  MEAN CORPUSCULAR HEMOGLOBIN CONCENTRATION: 35.93 G/DL
  MEAN CORPUSCULAR VOLUME: 60.07 fL
  MONOCYTE: 3.67%
  NEUTROPHIL: 13.67%
  NUCLEATED RED BLOOD CELLS: 0 /100WBC
  PLATELET COUNT: 1039 x10E3/uL
[2]
  ALANINE AMINOTRANSFERASE: 69.67 u/L
  ALBUMIN: 4.5 G/DL
  ALKALINE PHOSPHATASE: 284.67 u/L
  ASPARTATE AMINOTRANSFERASE: 99.67 u/L
  BLOOD UREA NITROGEN: 15.33 mg/dL
  CARBON DIOXIDE: 34.33 mmol/L
  CHLORIDE: 101.67 MEQ/L
  CHOLESTEROL: 82.67 mg/dL
  CREATININE: 0.18 mg/dL
  GLUCOSE: 127 mg/dL
  LACTATE DEHYDROGENASE: 138.67 u/L
  LIPASE: 8.67 u/L
  PHOSPHORUS: 9.93 mg/dL
  POTASSIUM: 6.21 MEQ/L
  SODIUM: 149.7 MEQ/L
  TOTAL BILIRUBIN: 0.13 mg/dL
  TOTAL PROTEIN: 6.8 G/DL
